We go through three molecules from patent US9198925B2, “Pharmaceutical formulations containing an SGLT2 inhibitor” (AstraZeneca AB, priority 2007, dated 2015).

SMILES strings stand for the structures. Where two headings read alike, the source gives them in different places.

Test [1] concerns healthy subjects. The note with it: single ascending dose study, cited from earlier work.
The subject of test [2] is treatment naive type II diabetes mellitus patients. Description: 12-week study of weight loss and glucosuria in patients with type II diabetes. The class given is in vivo, human. The note with it: for Mean reduction in BMI: absolute change. The method, then: Treatment naive type II diabetes mellitus patients, n=389, with inadequate blood glycemic control and low mean glucosuria at baseline were given once-daily oral treatments with dapagliflozin propylene glycol hydrate (2.5, 5, 10, 20, or 50 mgs), metformin XR® (750 mg titrated to 1500 mgs), or placebo over 12-weeks.

Test [3] deals with diet-induced obese (DIO) rats. The following applies: oral 1, 5 or 10 mg/kg, urine volume x glucose concentration.
Procedure: Obesity was induced in male Sprague-Dawley rats (mean baseline weight=220 g) via ad libitum access to 2 diets: normal diet (Harlan Teklad rat chow; 3.5 kcal/gm, 5% vegetable fat) and high-sucrose/high-fat diet (Research Diets D12327; 4.6 kcal/gm, 40% sucrose and 40% vegetable fat).
Urine volume and glucose concentration were used to determine total urine glucose loss over 24 hours post dose.
Total glucose lost was calculated as volume of urine x glucose concentration.
The subject of test [4] is healthy subjects. The following applies: single ascending dose study. The method, then:
(§1) Patients with type 2 diabetes were treated with placebo, 5 mg dapagliflozin propylene glycol hydrate, 25 mg dapagliflozin propylene glycol hydrate, or 100 mg dapagliflozin propylene glycol hydrate.

Test [5] deals with subjects with type 2 diabetes. The following applies: 14-day multiple dose. The method, then:
as §1

Test [6] has as its system diet-induced obese (DIO) rats.
Source text: Obesity was induced in male Sprague-Dawley rats (mean baseline weight=220 g) via ad libitum access to 2 diets: normal diet (Harlan Teklad rat chow; 3.5 kcal/gm, 5% vegetable fat) and high-sucrose/high-fat diet (Research Diets D12327; 4.6 kcal/gm, 40% sucrose and 40% vegetable fat). Rats under these conditions typically consume approximately 30 g/day of the high-sucrose/high-fat chow and 2 g/day of the normal Harlan Teklad rat chow.
DIO rats were sorted into treatment groups based on body weight, total kilocalories consumed, and body composition (via echo MRI). […] Body weight and the weight of both diets were determined daily. Respiratory quotient data were obtained on days 2 and 15 of the study, echo MRI was obtained on day 22, and blood was collected for a fasting clinical chemistry tests on day 27.
Percent weight changes were calculated as daily weight—day 0 weight×100.
The mark [7] stands for this setting: metformin XR 750 mg titrated to 1500 mgs, 12 weeks, n = 56.
[8] abbreviates: 2.5 mgs once daily, 12 weeks, n = 59.
[9] abbreviates: 5 mgs once daily, 12 weeks, n = 58.
Setting [10] is: 10 mgs once daily, 12 weeks, n = 47.
Setting [11] is: 20 mgs once daily, 12 weeks, n = 59.
Where [12] appears, read: 50 mgs once daily, 12 weeks, n = 56.

Take `CCOC(=O)OC[C@H]1O[C@@H](Oc2ccccc2Cc2ccc(OC)cc2)[C@H](O)[C@@H](O)[C@@H]1O` [GSK 869,682]: the “amount of glucose excretion/day” value in the test on healthy subjects [1] (50 mg) is reported as “approximately 5 g”; in the test with healthy subjects [1] (100 mg), roughly 6 g; in the test on healthy subjects [1] (200 mg) it was roughly 12 g; in the test with healthy subjects [1] (500 mg) it was roughly 16 g.
`CN(C)C(=N)N=C(N)N` [Metformin, metformin, reference compound]: in test [2] (setting [7]), the “Mean reduction in BMI” value is given as −0.5 and the “Mean reduction in weight (%)” value was −1.7%. Also, the “mean glucosuria at week 12” value in test [2] (type II diabetes patients, metformin XR 750 mg titrated to 1500 mgs, week 12) was 5.6 grams/day.
Take `CCOc1ccc(Cc2cc([C@@H]3O[C@H](CO)[C@@H](O)[C@H](O)[C@H]3O)ccc2Cl)cc1.C[C@H](O)CO.O` [dapagliflozin propylene glycol hydrate]: the “total amount of glucose lost in urine over 24 hours post dose” value in test [3] is “significantly increased with increasing doses”. In addition, the “Mean reduction in weight (%)” value in test [2] (setting [8]) is on record as −2.7%; in test [2] (setting [9]) it was −2.5%; in test [2] (setting [10]) it was −2.7%; in test [2] (setting [11]) it was −3.4%; in test [2] (setting [12]) it was −3.4%. Besides, the “Mean reduction in BMI” value is on record as −0.9 in test [2] (setting [8]); −0.8 in test [2] (setting [9]); −0.8 in test [2] (setting [10]); −1.0 in test [2] (setting [11]); −1.1 in test [2] (setting [12]). Also, the “proportion of patients who achieved a 5% weight reduction, versus placebo” value in test [2] (each dose group (2.5, 5, 10, 20, 50 mgs), 12 weeks) is on record as “higher proportion”. Further, the “amount of glucose excretion/day” value in the test with healthy subjects [4] (5 mg) is “approximately 30 g”; in the test on healthy subjects [4] (20 mg), roughly 55 g; in the test on healthy subjects [4] (50 mg), roughly 60 g; in the test on healthy subjects [4] (100 mg) it was roughly 70 g. Besides, the “24-hour urine glucose excretion compared to placebo” value in test [5] (5 mg), in test [5] (25 mg) and in test [5] (100 mg) was “significantly higher” each time. In addition, the “body weight loss versus vehicle” value in test [6] (oral 0.5, 1 or 5 mpk, administered daily over 25 days, p<0.05 versus vehicle) is “significant weight loss”. The “body weight loss when compound-induced overeating was prevented (pair fed to vehicle group)” value in test [6] (pair fed subgroup, compared with ad libitum treated rats) is on record as “the weight loss was greater”.
